# Where two headings read alike, the source gives them in different places.
# What was measured:
# Assay type in all cases: cell-based
# [1] = tested on: tsFT210 cells (mouse breast cancer cells CDC2 temperature sensitive strain); assay: Growth-inhibiting activity against animal cells (WST-8), tsFT210
# Description: (§1) HL-60 cells (human acute promyelocytic leukemia cell line) and K562 cells (human chronic myeloid leukemia cell line) were maintained in a culture medium in which RPMI1640 medium (manufactured by Invitrogen) was added with 10% fetal bovine serum (manufactured by Nichirei), 0.5% penicillin/streptomycin solution (manufactured by Invitrogen) at 37° C. under a humidified culture of 5% CO2. tsFT210 cells (mouse breast cancer cells CDC2 temperature sensitive strain) were maintained in a culture medium in which RPMI1640 medium (manufactured by Invitrogen) was added with 5% calf serum (manufactured by Hyclone) and 0.5% penicillin/streptomycin solution at 32° C. under a humidified culture of 5% CO2.
# (§2) HL-60 cells and K562 cells were seeded in a 96-well plate (manufactured by IWAKI) so as to be 1.5×10^4 cells/well/100 μl. tsFT210 cells were seeded in a 96-well plate so as to be 1.6×10^4 cell/well/100 μl. Each of the agents in Table 5 was added at 0.5% (v/v). HL-60 cells and K562 cells were maintained at 37° C. under a humidified culture of 5% CO2 and tsFT210 cells were maintain at 32° C. under a humidified culture of 5% CO2. Forty eight hours after addition of the agent, 10 μl of a reagent SF solution for counting live cells (WST-8 reagent, manufactured by Nakarai tesque) was added to each well. HL-60 cells and K562 cells were maintained at 37° C. under a humidified culture of 5% CO2 for 30 minutes and tsFT210 cells were maintain at 32° C. under a humidified culture of 5% CO2 for one hour. After the reaction, absorbance at 450 nm was measured using a microplate reader (manufactured by PerkinElmer) and a cell proliferation rate was determined from the measurement value.
# [2] = tested on: Escherichia coli (HO141 strain); assay: Growth-inhibiting activity against Escherichia coli; conditions: 6 hours, absorbance at 600 nm, read-out: E. coli IC50
# Description: Escherichia coli (HO141 strain) was precultured in culture medium of 0.5% Polypeptone, 0.5% Meat Extract, 0.3% NaCl, and 0.001% Sodium Dodecyl Sulfate (SDS) at 37° C. Absorbance at 600 nm was measured, and Escherichia coli solution was prepared such that the absorbance is 0.005 and seeded 100 μl each in a 96-well plate. Each of the agents in Table 5 was added at 0.5% (v/v) and maintained at 37° C. Six hours after addition of the agent, absorbance at 600 nm was measured using a microplate reader (manufactured by PerkinElmer) and a proliferation rate was determined from the measurement value.
# [3] = tested on: K562 cells (human chronic myeloid leukemia cell line); assay: Growth-inhibiting activity against animal cells (WST-8), K562
# Description: as §1, §2
# [4] = tested on: HL-60 cells (human acute promyelocytic leukemia cell line); assay: Growth-inhibiting activity against animal cells (WST-8), HL-60; conditions: for IC50: Homo sapiens, read-out: HL60 IC50; for cancer cell growth-inhibiting activity (in words): summary of Table 5 (HL60, K562, tsFT210), RM-T as compared with RM-A
# Description: as §1, §2
# [5] = tsFT210, 48 h, read-out: tsFT210 IC50
# [6] = K562, 48 h, read-out: K562 IC50
Structure (SMILES),"IC50 ([1]; tsFT210 cells, 32° C., 48 hours after addition of the agent, WST-8, read-out: tsFT210 IC50) [mg/L]",IC50 [2] [mg/L],"IC50 ([3]; K562 cells, 48 hours after addition of the agent, WST-8, read-out: K562 IC50) [mg/L]","IC50 ([4]; HL-60 cells, 48 hours after addition of the agent, WST-8) [mg/L]",cancer cell growth-inhibiting activity (in words) [4],"IC50 [1, 5] [mg/L]","IC50 [3, 6] [mg/L]","IC50 ([4]; HL-60, 48 h) [mg/L]"
CCCC[C@H]1CC[C@]2(CC[C@H](C)[C@@H](C/C=C(C)/C=C/[C@H](O)[C@@H](C)/C=C/C(=O)OCC)O2)O[C@H]1/C=C/C(C)=C/C(=O)O [RM-T ethyl-ester],11.4,> 50,0.7,0.2,high,,,
CCCCCC[C@@]1(OC(=O)CCC(=O)O)CC[C@]2(CC[C@H](C)[C@@H](C/C=C(C)/C=C/[C@H](O)[C@@H](C)/C=C/C(=O)O)O2)O[C@H]1/C=C/C(C)=C/C(=O)O [RM-E],,> 50,,,high,7,1.9,1.5
"CCCC[C@@]1(OC(=O)CCC(=O)O)CC[C@]2(CC[C@H](C)[C@@H](C/C=C(C)/C=C/[C@H](O)[C@@H](C)/C=C/C(=O)O)O2)O[C@H]1/C=C/C(C)=C/C(=O)O [RM-A, Reveromycin A]",,> 50,,,,8.5,4.9,2.7
CCCCC1CCC2(CCC(C)C(C/C=C(C)/C=C/C(O)C(C)/C=C/C(=O)O)O2)OC1/C=C/C(C)=C/C(=O)O (stereo not shown) [RM-T],,> 50,,,higher,0.4,0.7,0.2
